# From publication PMC6151500 (Molecules : A Journal of Synthetic Chemistry and Natural …, 2017)
# pIC50: −log10 of the molar value.
# Target: Homo sapiens butyrylcholinesterase (hBuChE) (Homo sapiens, UniProt P06276)
# Experiment: Inhibition of hBuChE (Ellman assay, 4PL dose-response)
# Homo sapiens butyrylcholinesterase (hBuChE), sequence (P06276 29-602): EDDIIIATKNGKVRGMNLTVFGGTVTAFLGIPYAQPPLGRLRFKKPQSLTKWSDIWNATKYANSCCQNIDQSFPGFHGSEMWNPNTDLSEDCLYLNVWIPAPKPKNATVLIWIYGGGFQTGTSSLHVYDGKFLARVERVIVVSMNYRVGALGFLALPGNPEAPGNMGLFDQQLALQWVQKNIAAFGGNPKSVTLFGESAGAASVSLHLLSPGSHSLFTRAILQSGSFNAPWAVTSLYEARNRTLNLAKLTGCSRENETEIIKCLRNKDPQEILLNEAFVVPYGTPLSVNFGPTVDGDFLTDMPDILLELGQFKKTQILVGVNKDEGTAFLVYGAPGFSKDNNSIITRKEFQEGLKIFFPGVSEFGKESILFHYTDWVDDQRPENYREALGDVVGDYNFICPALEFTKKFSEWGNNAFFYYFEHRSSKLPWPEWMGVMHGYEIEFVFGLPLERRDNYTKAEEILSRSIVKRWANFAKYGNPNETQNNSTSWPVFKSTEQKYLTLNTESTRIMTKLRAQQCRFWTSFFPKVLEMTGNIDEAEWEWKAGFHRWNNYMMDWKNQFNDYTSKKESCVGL
structure (smiles),measurement,value
"CN(C)c1ccc(C(=C2C=CC(=[N+](C)C)C=C2)c2ccc(N(C)C)cc2)cc1 [CV, tris(4-(dimethylamino)phenyl)methylium chloride]",pIC50,6.05
